Test results reported in patent US20200230126A1, “TARGETED THERAPEUTICS” (TARVEDA THERAPEUTICS, INC., priority 2017, published 2020).

Assays:
Type in all cases: physicochemical
[1] = In-use stability study of dosing solutions in 5% Mannitol (mixing container, syringe pump, administration set)
Protocol: In this study, SDC-TRAP-0063 sodium was dissolved in 5% Mannitol within the concentration range of 3-12 mg/mL. The stabilities of the SDC-TRAP-0063/Mannitol solution in an infusion container and during administration via a syringe pump were studied.
Dosing solutions of 3, 6 and 12 mg/mL of SDC-TRAP-0063 Na were prepared in 250 mL Intravia mixing containers. Pre-determined numbers of vials of SDC-TRAP-0063 Na were re-constituted with WFI and SDC-TRAP-0063 Na was transferred into mixing containers containing 5% mannitol. Each preparation was performed in duplicate.
An in-use test was performed to simulate the clinical infusion process. Freshly prepared dosing solutions were withdrawn from the Intravia containers with the specified syringe size and volume, plus an additional 2 mL for flushing the administration set. The volume of the IV administration set is O.7 mL; the 2 mL flush volume was selected according to standard pharmacy practice. After the administration set was flushed, the syringe was placed on a syringe pump and held at room temperature for 4 hours followed by a 2-hour infusion process. For the 15 mg dose level the simulation infusion was for 1 hour, because the minimal infusion rate specified by clinic was not less than 5 mL/hour. Samples were collected from the mixing containers at T0 and T2 hours and from the administration sets at T0 and from the bulk container at the end of infusion, at T5 hours for 15 mg sample and at T6 hours for all other samples, as outlined in Table 8.
A flexible bracketing design, intended to cover possible syringe volumes from 10 to 60 mL of nominal volumes, possible variation of the syringe fill volumes from 10 to 75% of the nominal syringe volume and concentration ranges of the dosing solutions from 3 to 12 mg/ml was executed in this study. The maximum fill volume for each syringe is limited to 75% of the nominal volume.

[2] = Head-to-head in-use test, 0.9% Sodium Chloride dosing solution in IV bag and IV line with rocking; design: key to appearance: Conforms = clear and essentially free of visible particles; conditions: for appearance: 0.6 mg/mL in Sodium Chloride
Protocol: A head-to-head in-use test of the SDC-TRAP-0063 Sodium 0.9% Sodium Chloride and 5% Mannitol dosing solutions was conducted. This study was intended to directly compare the two based on the specific clinical use direction for each diluent. In this study, the respective IV bags, syringes and IV lines were subjected to a rocking motion during the hold periods to mimic a worst case scenario for agitation of the dosing solution.
The 0.9% Sodium Chloride dosing solution was tested in an IV bag and IV line and at 0.6 mg/mL of SDC-TRAP-0063 Sodium as used in the clinic during the product complaint, with a designed 4 hour hold period followed by a 2-hour simulated infusion using a peristaltic pump (Table 5).

[3] = Solubility in water
Description: As discussed above, the solubility of SDC-TRAP-0063 Sodium is driven primarily by pH. […] Reducing the pH allows the equilibrium to shift more to the lactone form and adversely impacts solubility. Dilute solutions of SDC-TRAP-0063 Sodium result in a lower pH with an increased risk of precipitation. The solubility of SDC-TRAP-0063 Sodium has also been seen to be adversely impacted by the use of 0.9% Sodium Chloride as a diluent. A common ion effect is the likely source of this observation.

With `CCc1c2c(nc3ccc(OC(=O)N4CCC(CCn5ccc6cc(-n7c(O)nnc7-c7cc(C(C)C)c(O)cc7O)ccc65)CC4)cc13)-c1cc([C@@](O)(CC)C(=O)[O-])c(CO)c(=O)n1C2.[Na+]` [SDC-TRAP-0063 Sodium, Sodium (S)-2-(2-((4-(2-(5-(3-(2,4-dihydroxy-5-isopropylphenyl)-5-hydroxy-4H-1,2,4-triazol-4-yl)-1H-indol-1-yl)ethyl)piperidine-1-carbonyl)oxy)-12-ethyl-8-(hydroxymethyl)-9-oxo-9,11-dihydroindolizino[1,2-b]quinolin-7-yl)-2-hydroxybutanoate] the total impurities ([1]; 2-hour storage in mixing containers and total of 6 hours simulated hold and infusion (5 hours for 15 mg dose)) was “within the acceptable ranges”, the HPLC assay values ([1]; 3, 6 and 12 mg/mL, samples collected during the study) was “did not show any trends and were within expected ranges” and the “appearance of test samples” value ([1]; 3, 6 and 12 mg/mL, up to 6 hours) was “clear solutions essentially free of particles”. For the same compound, the in-use stability profile ([1]; concentration range of 3-12 mg/mL) was “acceptable stability profile”, the “termination of the simulated infusion after onset due to occlusion of the in-line filter” value ([2]; 0.6 mg/mL in 0.9% Sodium Chloride, 2-hour simulated infusion, peristaltic pump) was at most 1 h and the “precipitation during the hold period” value ([2]; 0.6 mg/mL in 0.9% Sodium Chloride, 4 hour hold period, rocking) was “Precipitation was observed in both the IV bag and IV line”. The appearance ([2]; Bulk solution, at termination, collected after in line filter) was “Conforms^1”, the appearance ([2]; Drip Chamber of the IV Administration set, less than 1 hour (infusion terminated)) was “Hazy with fine floating” and the appearance ([2]; IV Administration set, 0 hours, collected after in line filter) was “Conforms^1”. The appearance ([2]; IV bag, 0 hours) was “Conforms^1”, the appearance ([2]; IV bag, 2 hours) was “Slightly hazy solution” and the appearance ([2]; IV bag, 4 hours, collected after in line filter) was “Conforms^1”. For the same compound, the solubility [3] was over 52.5 mg/mL.
